Earlier results on 1 compound are cited in US9707273B2, “Peptides for use in the topical treatment of retinal neurodegenerative diseases, in particular in early stages of diabetic retinopathy and other retinal diseases in which neurodegeneration plays an essential role” (FUNDACIÓ HOSPITAL UNIVERSITARI VALL D'HEBRON—INSTITUT DE …, priority 2013, dated 2017).

Each structure is given as a SMILES string.

The conditions of this data set: administered in the form of eye drops; Aiello et al. 2008.

With `Cc1cc(-c2cc(O)ccc2Cl)cc2nnc(Nc3ccc(OCCN4CCCC4)cc3)nc12` [TG100572, 4-chloro-3-(5-methyl-3-{[4-(2-pyrrolidin-I-ylethoxy)phenyl]amino}-1,2,4-benzotriazin-7-yl)phenol], the “reaching the target in the retina after eye drops” value is “able to reach the target in the retina”.
